Measured values reported in patent publication US20250313537A1, “BENZ[…] AND METHODS OF USE IN TREATING CANCER” (University of Cincinnati, priority 2022, published 2025).
Entries after “also recorded” stand apart in the source; their conditions may differ.

How the values were obtained:
H1792 cells = experiment: In vitro viability assay (Cell Titer 96 Aqueous One), H1792; assay type: cell-based, human; settings: H1792 cells (FIG. 6, 7A, 7B)
Method: (§1) Cell lines tested were purchased from the American Type Culture Collection (ATCC). Cells were maintained in Dulbecco's Modified Eagle's Medium (DMEM) (Corning) or Roswell Park Memorial Institute (RPMI) 1640 Medium (Gibco). Media for lines was supplemented with 10% (v/v) Fetal Bovine Serum (FBS) (Corning) and 100 U/mL penicillin/streptomycin (Sigma). Lines were grown at 37° C. with 5% (v/v) CO2. Cells were passaged twice a week at 1:10 ratio and reached 80 to 90% confluency between 72 and 96 hours.
(§2) For in vitro studies drug was solubilized in dimethyl sulfoxide (DMSO, 0.125%) prior to use. For mouse studies drug was solubilized in a co-solvent formulation: propylene glycol (40%); ethanol (10%); benzyl alcohol (2%); benzoic acid (2%); sodium benzoate (2%).
(§3) For cell proliferation viability studies, cells were assayed using the Cell Titer 96® Aqueous One Solution Assay (Promega). IC50 values were determined using the ‘[Inhibitor] versus normalized response’ nonlinear regression function and the log of inhibitor concentration in Prism 8 software (version 8.3.0 for MacOS).

[1] = test system: Lewis Lung Carcinoma cells; experiment: Mitochondrial depolarization, TMRE binding by FACS; assay type: cell-based, mouse; settings: for TMRE binding (depolarization): Lewis Lung Carcinoma cells, FACS, within 15 minutes of incubation; for shift in electric charge distribution / depolarization of cancer cells: different/disparate cancer cell types
[2] = test system: cancer cell lines A375, H1792, LN18, LLC; experiment: In vitro viability assay (Cell Titer 96 Aqueous One), cancer cell lines; assay type: cell-based, human, mouse; settings: for cytotoxicity of NOR-variant relative to non-NOR-variant: SRE-III-35 vs TA-IV-74, TA-II-59 vs TA-II-73
Method: as §1, §2, §3

[3] = test system: Lewis Lung Carcinoma (LLC) tumors; experiment: Bilateral flank LLC tumor growth delay in C57Bl6 mice; assay type: in vivo, mouse
Excerpt: as §2
For subcutaneous xenograft tumor growth delay experiments, black 6 mice (C57Bl6) were purchased (Charles River Laboratories) and housed at University of Cincinnati LAMS. Purchased mice were allowed to accommodate for a week prior to experiment. Mice were housed in pathogen-free rooms and clinical health evaluated weekly by veterinary staff of the University of Cincinnati LAMS. All animal studies were conducted in accordance with approval of a University of Cincinnati IACUC.
LLC1 cells (a million) grown in RPMI medium were washed in cold PBS and mixed with Matrigel 25%, then injected subcutaneously into left and right flanks above the hind limbs of 6 to 8-week-old mice. When subcutaneous tumors were palpable (˜100 mm^3 in size) the following treatments groups were initiated: (1) vehicle (2) drug. In mice receiving vehicle alone, the vehicle was injected i.p for 7 days. In mice receiving drug, drug (2.5 mg/kg body weight) was injected i.p. for 7 days. Following end of treatment, tumor volume were taken for growth delay studies. Mouse tumors were measured by Vernier calipers. Tumor volume was calculated using the formula: 4/3π×(l×h2), where: l and h are radii of the tumor taken perpendicular to each other. Tumor size was measured three times a week using a caliper.

GABAA receptors = experiment: Single-cell patch-clamp electrophysiology in H1792 cells; assay type: cell-based, human; settings: 1 μM GABA + 4 μM QH-II-066
Excerpt: Recording solutions were purchased from Nanion Technologies.

[4] = test system: LC3B- and NIX-positive puncta in H1792 cells; experiment: Confocal immunofluorescence of autophagosome puncta; assay type: cell-based, human; settings: H1792, relative to DMSO control
Method: Cells were seeded on sterile glass cover slips and grown overnight at 37° C. Cells were then rinsed with cold PBS and fixed in 4% paraformaldehyde (30 min, room temperature). Fixed cells were rinsed in PBS (3×5 min at room-temperature), and permeabilized (15 min in PBS containing 0.1% Triton X-100). Cells were washed in PBS (3× for 5 min at room-temperature) and incubated with blocking buffer (PBS containing 0.3% Triton X-100 and 3% BSA) for 1 hr at room-temperature with gentle shaking. Blocking solution was aspirated, cells washed with ice-cold PBS, and incubated overnight with primary Ab (LC3B or NIX) diluted 1:200 in sterile 0.5% BSA in PBS at 4° C. on the cover slip placed on a glass slide kept inside a humidified 10 cm dish with gentle shaking 60. Cells were washed (3× for 5 min in PBS) and incubated with fluorophore conjugated secondary Ab goat anti-rabbit Alexa Fluor 594 (Abcam) in 2% normal donkey serum at room-temperature for 1 hr in dark. Cells were washed (3× for 5 min in PBS) under low light and mounted on a glass slide in […] Antifade Mounting Medium with DAPI (Vector Laboratories). The following Abs were used (1:200 dilution): rabbit anti-human LC3B (Cell Signaling Technology) and rabbit NIX (Cell Signaling Technology). Slides were imaged on a Zeiss LSM 710 laser scanning confocal microscope and analyzed using NIH Fiji ImageJ2 (version 1.53c).

GABARAP = experiment: Western blot of GABARAP in H1792 cells; assay type: cell-based, human
Method: DNA was sheared by sonication. Lysates were kept on ice for 30 min, centrifuged 10 min (13,500×g, 4° C.), and protein concentration of supernatant determined by a Bradford assay (Protein Assay Dye Reagent, Bio-Rad). Lysates were mixed 1:1 with 2× Laemmli sample buffer containing β-mercaptoethanol and heated 5 min at 95° C. Protein was resolved by SDS-PAGE using 4-20% gradient polyacrylamide gels (Bio-Rad), then transferred to nitrocellulose membranes (Bio-Rad) for 2 hr at 100 V in tris-glycine transfer buffer containing 20% methanol. Membranes were blocked at room-temperature in 5% 1×TBST blocking buffer (TBS with 0.1% Tween-20 and 5% non-fat dry milk) for 1 hr with gentle agitation, followed by overnight incubation with primary Ab and gentle shaking at 4° C. The primary Abs were diluted as follows: GAPDH (1:1000, Cell Signaling Technology); GABARAP (1:1000, Cell Signaling Technology); NIX (1:1000, Cell Signaling Technology). Immunodetection was performed with anti-rabbit horseradish-peroxidase-conjugated secondary antibody (1:10000, Cell Signaling Technology). Post-primary Ab incubation, membranes were washed (3× for 10 min in TBST at room-temperature), probed with rabbit HRP tagged secondary antibody (1:3000, Cell Signaling Technology), and processed for chemiluminescence detection using ECL kit (Thermo Scientific). […]

NIX = experiment: Western blot of NIX in H1792 cells; assay type: cell-based, human
Method: DNA was sheared by sonication. Lysates were kept on ice for 30 min, centrifuged 10 min (13,500×g, 4° C.), and protein concentration of supernatant determined by a Bradford assay (Protein Assay Dye Reagent, Bio-Rad). Lysates were mixed 1:1 with 2× Laemmli sample buffer containing β-mercaptoethanol and heated 5 min at 95° C. Protein was resolved by SDS-PAGE using 4-20% gradient polyacrylamide gels (Bio-Rad), then transferred to nitrocellulose membranes (Bio-Rad) for 2 hr at 100 V in tris-glycine transfer buffer containing 20% methanol. Membranes were blocked at room-temperature in 5% 1×TBST blocking buffer (TBS with 0.1% Tween-20 and 5% non-fat dry milk) for 1 hr with gentle agitation, followed by overnight incubation with primary Ab and gentle shaking at 4° C. The primary Abs were diluted as follows: GAPDH (1:1000, Cell Signaling Technology); GABARAP (1:1000, Cell Signaling Technology); NIX (1:1000, Cell Signaling Technology). Immunodetection was performed with anti-rabbit horseradish-peroxidase-conjugated secondary antibody (1:10000, Cell Signaling Technology). Post-primary Ab incubation, membranes were washed (3× for 10 min in TBST at room-temperature), probed with rabbit HRP tagged secondary antibody (1:3000, Cell Signaling Technology), and processed for chemiluminescence detection using ECL kit (Thermo Scientific). Chemiluminescence images were acquired using ChemiDoc Touch Imaging System (Bio-Rad).

[5] = 2.5 mg/kg i.p. for seven consecutive days

## C#Cc1ccc2c(c1)C(c1ccccc1)=NCC(=S)N2C [TA-III-52, 7-ethynyl-1-methyl-5-phenyl-1,3-dihydro-2H-benzo[e][1,4]diazepine-2-thione]
H1792 cells
  cytotoxicity (activity): poorly or inactive

## O=C1CN=C(c2ccccc2)c2cc(Br)cc(Br)c2N1 [TA-III-56, 7,9-dibromo-5-phenyl-1,3-dihydro-2H-benzo[e][1,4]diazepin-2-one]
H1792 cells
  cytotoxicity (activity): poorly or inactive

## C#Cc1ccc2c(c1)C(c1ccccc1C)=NCC(=O)N2 [TA-II-59, 7-ethynyl-5-(o-tolyl)-1,3-dihydro-2H-benzo[e][1,4]diazepin-2-one]
[1]
  TMRE binding (depolarization): reduced TMRE binding
  shift in electric charge distribution / depolarization of cancer cells: depolarizing
[2]; LN18, H1792, A375, LLC1
  cytotoxicity to cancer cells: most potent
[2]
  cytotoxicity of NOR-variant relative to non-NOR-variant: 2 fold
[2]; cytotoxicity
  potency relative to QH-II-066: an order of magnitude more potent
[3]; [5]
  tumor control relative to vehicle mice: significant tumor control

## O=C1CN=C(c2ccccc2)c2cc(C3CC3)ccc2N1 [SRE-III-35, 7-cyclopropyl-5-phenyl-1,3-dihydro-2H-benzo[e][1,4]diazepin-2-one]
[1]
  TMRE binding (depolarization): reduced TMRE binding
  shift in electric charge distribution / depolarization of cancer cells: depolarizing
[2]
  cytotoxicity of NOR-variant relative to non-NOR-variant: 2 fold
[2]; cytotoxicity
  potency relative to TA-II-59: equally as potent
[3]; [5]
  tumor control relative to vehicle mice: significant tumor control

## CN1C(=O)CN=C(c2ccccc2)c2cc(C3CC3)ccc21 [TA-IV-74, 7-cyclopropyl-1-methyl-5-phenyl-1,3-dihydro-2H-benzo[e][1,4]diazepin-2-one]
[3]; [5]
  effect compared with the other compounds tested: most significant effect; also recorded: most effective
  tumor control relative to vehicle mice: significant tumor control
[3]; at 25 days, 2.5 mg/kg i.p. for seven days
  tumor volume: no increase in tumor volume

## C#Cc1ccc2c(c1)C(c1ccccc1)=NCC(=O)N2C [QH-II-066]
GABAA receptors
  current response to GABA plus compound over GABA alone: enhanced response; also recorded: enhances the current signal
[4]
  LC3B-positive puncta: increased puncta
  NIX-positive puncta: increased puncta
GABARAP; H1792, 72 hours
  GABARAP dimerization: dimerize
GABARAP; H1792, 72 hours post-treatment
  GABARAP protein level: pronounced accumulation
NIX; H1792
  dose dependence of induced NIX dimerization: dose-dependent
NIX; H1792, 72 hours
  NIX dimerization: dimerize
NIX; H1792, 72 hours post-treatment
  NIX protein level: pronounced accumulation

## C#Cc1ccc2c(c1)C(c1ccccc1)=NC(O)C(=O)N2C (stereo not drawn) [TA-III-70, 7-ethynyl-3-hydroxy-1-methyl-5-phenyl-1,3-dihydro-2H-benzo[e][1,4]diazepin-2-one]
H1792 cells
  cytotoxicity (activity): poorly or inactive

## O=C1CN=C(c2ccccc2F)c2cc(C3CC3)ccc2N1 [SRE-III-43, 7-cyclopropyl-5-(2-fluorophenyl)-1,3-dihydro-2H-benzo[e][1,4]diazepin-2-one]
[1]
  TMRE binding (depolarization): reduced TMRE binding
  shift in electric charge distribution / depolarization of cancer cells: depolarizing

## C#Cc1cc(C#C)c2c(c1)C(c1ccccc1)=NCC(=O)N2C [TA-III-62, 7,9-diethynyl-1-methyl-5-phenyl-1,3-dihydro-2H-benzo[e][1,4]diazepin-2-one]
H1792 cells
  cytotoxicity (activity): poorly or inactive

## C#Cc1ccc2c(c1)C(c1ccccc1F)=NCC(=S)N2C [TA-III-50, 7-ethynyl-5-(2-fluorophenyl)-1-methyl-1,3-dihydro-2H-benzo[e][1,4]diazepine-2-thione]
H1792 cells
  cytotoxicity (activity): poorly or inactive

## C#Cc1ccc2c(c1)C(c1ccccc1F)=NC(O)C(=O)N2 (stereo not drawn) [MYM-I-59, 7-ethynyl-5-(2-fluorophenyl)-3-hydroxy-1,3-dihydro-2H-benzo[e][1,4]diazepin-2-one]
H1792 cells
  cytotoxicity (activity): poorly or inactive
